The record followed here is patent US11236088B2, “Heterocyclic compounds and their application in medicine” (KIND PHARMACEUTICAL, priority 2017, dated 2022).

The subject of the assay is MCF-7 cells. Put plainly: Inhibitory effect on the growth of MCF-7 cells (CellTiter-Glo, 10 days). Format: cell-based. The following applies: Homo sapiens, MCF7, 240 h, 10 days incubation, CellTiter-Glo chemiluminescence. As for the experimental part:
Assay 2: Inhibitory effect of compounds of the present invention on the growth of MCF-7 cells by a cell drug inhibition experiment
1. Experimental Materials
1) Reagents: DMEM high glucose medium (Lonza #12-604F), FBS (BI #04-00F1ACS), antibiotics (Thermofisher #15070063), bovine insulin (Western reagent #11070-73-8), trypsin (Thermofisher #25200-056), CellTiter-Glo reagent (Promega #G7571)
2) Instruments: American MD-M5 microplate reader 5;
2. Experimental Procedures:
1) 100 μl of MCF-7 cells was added to a medium in a white opaque 96-well plate at a density of 5000 cells/ml in which the medium is DMEM high-glucose medium supplemented with 10% FBS. The cells were cultured in a 5% CO2 cell incubator at 37° C. for 24 hours.
2) Different concentrations of corresponding compounds were added to the 96-well plate for incubating MCF-7 cells. The cells were incubated for 10 days in a 5% CO2 cell incubator.
3) To each well of MCF-7 cells, 100 μl of CellTiter-Glo reagent was added and then set aside at room temperature for 10 minutes. The chemiluminescence signal was read using an MD-M5 microplate reader, and the data was processed using GraphPad Prism to calculate IC50 value.
For orientation: In ATP-based viability assays light output follows the ATP content of the culture.
A word on the IC50: it is the concentration needed to halve the response being measured. A higher IC50 goes with weaker potency in that assay. Compound `CC(C)CN1CC(Oc2cc(F)c([C@@H]3c4ccc5[nH]ncc5c4CN(C)[C@H]3CC3CC3)c(F)c2)C1` [Example 22, (6S, 7S)-7-cyclopropylmethyl-6-(2,6-difluoro-4-((1-isobutylazetidin-3-yl)oxy)phenyl)-8-methyl-6,7,8,9-tetrahydro-3H-pyrazolo [3,4-h]isoquinoline] returned an IC50 above 1000 nM.

For the compound `CCCCN1CC(Oc2cc(F)c([C@@H]3c4ccc5[nH]ncc5c4CN(C)[C@H]3CC3CC3)c(F)c2)C1` [Example 23, (6S, 7S)-6-(4-((1-butylazetidin-3-yl)oxy)-2,6-difluorophenyl)-7-cyclopropylmethyl-8-methyl-6,7,8,9-tetrahydro-3H-pyrazolo [3,4-h]isoquinoline], the IC50 was above 1000 nM.

In turn, `CCCCCN1CC(Oc2cc(F)c([C@@H]3c4ccc5[nH]ncc5c4CN(C)[C@H]3CC3CC3)c(F)c2)C1` [Example 24, (6S, 7S)-7-cyclopropylmethyl-6-(2,6-difluoro-4-((1-pentylazetidin-3-yl)oxy)phenyl)-8-methyl-6,7,8,9-tetrahydro-3H-pyrazolo [3,4-h]isoquinoline] registered a half-inhibitory concentration (IC50) above 1000 nM.

In turn, `CN1Cc2c(ccc3[nH]ncc23)[C@@H](c2c(F)cc(SC3CN(CCCF)C3)cc2F)[C@@H]1CC1CC1` [Example 25] returned an IC50 of 10 to 1000 nM.

Consider `CCCN1CC(Sc2cc(F)c([C@@H]3c4ccc5[nH]ncc5c4CN(C)[C@H]3CC3CC3)c(F)c2)C1` [Example 26, (6S, 7S)-7-cyclopropylmethyl-6-(2,6-difluoro-4-((1-propylazetidin-3-yl)thio)phenyl)-8-methyl-6,7,8,9-tetrahydro-3H-pyrazolo [3,4-h]isoquinoline], for which the IC50 lay within 10 to 1000 nM.

Take `CCCCN1CC(Sc2cc(F)c([C@@H]3c4ccc5[nH]ncc5c4CN(C)[C@H]3CC3CC3)c(F)c2)C1` [Example 27, (6S, 7S)-6-(4-((1-butylazetidin-3-yl)thio)-2,6-difluorophenyl)-7-cyclopropylmethyl-8-methyl-6,7,8,9-tetrahydro-3H-pyrazolo [3,4-h]isoquinoline]: the IC50 was above 1000 nM.

Consider `CC(C)CN1CC(Sc2cc(F)c([C@@H]3c4ccc5[nH]ncc5c4CN(C)[C@H]3CC3CC3)c(F)c2)C1` [Example 28, (6S, 7S)-6-(4-((1-isobutylazetidin-3-yl)thio)-2,6-difluorophenyl)-7-cyclopropylmethyl-8-methyl-6,7,8,9-tetrahydro-3H-pyrazolo [3,4-h]isoquinoline], for which the IC50 was above 1000 nM.

The compound `CCCCCN1CC(Sc2cc(F)c([C@@H]3c4ccc5[nH]ncc5c4CN(C)[C@H]3CC3CC3)c(F)c2)C1` [Example 29, (6S, 7S)-7-cyclopropylmethyl-6-(2,6-difluoro-4-((1-pentylazetidin-3-yl)thio)phenyl)-8-methyl-6,7,8,9-tetrahydro-3H-pyrazolo [3,4-h]isoquinoline] returned an IC50 above 1000 nM.

Compound `CC(C)C[C@H]1[C@H](c2c(F)cc(OC3CN(C=O)C3)cc2F)c2ccc3[nH]ncc3c2CN1C` [Example 30, 3-(3,5-difluoro-4-((6S, 7S)-7-isobutyl-8-methyl-6,7,8,9-tetrahydro-3H-pyrazolo [3,4-h]isoquinolin-6-yl)phenoxy) azetidin-1-aldehyde] had an IC50 of at most 1 nM.

`CC(=O)N1CC(Oc2cc(F)c([C@@H]3c4ccc5[nH]ncc5c4CN(C)[C@H]3CC(C)C)c(F)c2)C1` [Example 31, 1-(3-(3,5-difluoro-4-((6S, 7S)-7-isobutyl-8-methyl-6,7,8,9-tetrahydro-3H-pyrazolo [3,4-h]isoquinolin-6-yl)phenoxy)azetidin-1-yl) ethan-1-one] came in with a concentration for half-maximal inhibition (IC50) of at most 1 nM.

`CCC(=O)N1CC(Oc2cc(F)c([C@@H]3c4ccc5[nH]ncc5c4CN(C)[C@H]3CC(C)C)c(F)c2)C1` [Example 32, 1-(3-(3,5-difluoro-4-((6S, 7S)-7-isobutyl-8-methyl-6,7,8,9-tetrahydro-3H-pyrazolo [3,4-h]isoquinolin-6-yl)phenoxy)azetidin-1-yl) propan-1-one] returned an IC50 of at most 1 nM.

In turn, `CCCC(=O)N1CC(Oc2cc(F)c([C@@H]3c4ccc5[nH]ncc5c4CN(C)[C@H]3CC(C)C)c(F)c2)C1` [Example 33, 1-(3-(3,5-difluoro-4-((6S, 7S)-7-isobutyl-8-methyl-6,7,8,9-tetrahydro-3H-pyrazolo [3,4-h]isoquinolin-6-yl)phenoxy)azetidin-1-yl) butan-1-one] yielded an IC50 of 10 to 1000 nM.

As to `CC(C)C[C@H]1[C@H](c2c(F)cc(OC3CN(C(=O)C(C)C)C3)cc2F)c2ccc3[nH]ncc3c2CN1C` [Example 34, 1-(3-(3,5-difluoro-4-((6S, 7S)-7-isobutyl-8-methyl-6,7,8,9-tetrahydro-3H-pyrazolo [3,4-h]isoquinolin-6-yl)phenoxy)azetidin-1-yl)-2-methylpropan-1-one], the IC50 is 1 to 10 nM.

Compound `C[C@]12CC[C@@H]3c4ccc(O)cc4C[C@@H](CCCCCCCCC[S+]([O-])CCCC(F)(F)C(F)(F)F)[C@H]3[C@@H]1CC[C@@H]2O` (some centres unmarked) [Fulvestrant, reference compound] gave an IC50 of 10 to 1000 nM.
